Source: patent US8143249B2 (Gilead Sciences, Inc., priority 2005, dated 2012)

Test: Oral pharmacokinetics/bioavailability of prodrugs vs parent (compound 1) in rats, plasma LC/MS/MS
Type: in vivo, Sprague Dawley rats
Settings: for Cmax: Sprague Dawley
Description: The following studies were conducted in order to compare the pharmacokinetics of the parent A2B adenosine receptor antagonist and its corresponding prodrug. The parent compound chosen was the compound of formula A in which R^1 is n-propyl, R^2 is ethyl, R^3 is hydrogen, and R^4 is 3-trifluoromethylphenyl; that is:
The studies were carried out in Sprague Dawley rats. The test compounds were administered orally by gavage to groups of three rats using a single oral dose of the test compound at 2 and 30 mg/kg. All oral doses were prepared either as a suspension in DMSO/ethanol/PEG300/0.1% N-methyl-D-glucamine or as a suspension in 0.5% methylcellulose in water. Blood samples were obtained serially from each rat at 0, 5, 15, 30 min, and then 1, 1.5, 2, 4, 6, 8, and 24 hrs post-dose.
Concentrations of compound 1 and/or the corresponding prodrug in rat plasma were determined by a HPLC tandem mass spectrometric (LC/MS/MS) method. Briefly, 0.1 mL of plasma sample was treated with 0.5 mL of acetonitrile:methanol (9:1, v/v) mixture containing 25 ng of compound 1 having deuterated ethyl at the 3-position in place of ethyl. (Internal Standard, I.S.) to precipitate the protein. The mixture was filtered through a 96-well filter and filtrate was collected and evaporated to dryness on a 96-well plate evaporator. The residue was then reconstituted with 400 μL 20% methanol and subjected to LC/MS/MS analysis. Quantification of compound 1 was achieved by mass spectrometry using Multiple Reaction Monitoring (MRM) mode, monitoring the transitions at m/z 447.1>159.1 for compound 1 and 452.1>159.1 for I.S. The quantification limit of the assay was 0.38 ng/mL for the analysis of the oral dose samples and 10 ng/mL during the analysis of the intravenous dose samples using 0.1 mL of plasma.
Non-compartmental pharmacokinetic parameters were determined using a commercial program WinNonLin Professional, Version 4.1 (Pharsight, Mountain View, Calif.). Plasma concentration at below level of detection was assumed to be zero for the calculation of means and pharmacokinetic parameters.
For oral administration, the maximum concentration (Cmax) and time to reach Cmax (Tmax), AUC(0-1), AUC(0-8) and bioavailability (% F) were determined. Oral bioavailability was determined from the ratio of dose-adjusted AUC(0-8) of the respective oral dose and the mean AUC(0-8) values of the 0.1 and 0.5 mg/kg intravenous doses.
The results are presented below in tabular form. The table provides results obtained by using a suspension of the test compound in a suspension in DMSO/ethanol/PEG300/0.1% N-methyl-D-glucamine in rats.

[1] = unchanged prodrug in rat plasma after single oral gavage dose, suspension in DMSO/ethanol/PEG300/0.1% N-methyl-D-glucamine

| Structure (SMILES) | Cmax [1] | Prodrug Mean Dose Adjusted AUC [1] | plasma levels of parent compound 1 following oral dosing, compared with oral dosing of the parent itself (rats, oral, result in words) | Prodrug Mean Cmax [1] | prodrug seen in plasma unmetabolized (rats, oral, result in words) |
| --- | --- | --- | --- | --- | --- |
| CCCC(=O)OCn1c(-c2cnn(Cc3cccc(C(F)(F)F)c3)c2)nc2c1c(=O)n(CCC)c(=O)n2CC [Compound 2, [3-ethyl-2,6-dioxo-1-propyl-8-(1-{[3-(trifluoromethyl)phenyl]methyl}pyrazol-4-yl)-1,3,7-trihydropurin-7-yl]methyl butanoate] | < 5 ng/mL | Not detectable |  |  |  |
| CCCn1c(=O)c2c(nc(-c3cnn(Cc4cccc(C(F)(F)F)c4)c3)n2COC(C)=O)n(CC)c1=O [Compound 3, [3-ethyl-2,6-dioxo-1-propyl-8-(1-{[3-(trifluoromethyl)phenyl]methyl}pyrazol-4-yl)-1,3,7-trihydropurin-7-yl]methyl acetate] | < 5 ng/mL | Not detectable |  |  |  |
| CCCn1c(=O)c2c(nc(-c3cnn(Cc4cccc(C(F)(F)F)c4)c3)n2COC(=O)C(C)(C)C)n(CC)c1=O [Compound 4, [3-ethyl-2,6-dioxo-1-propyl-8-(1-{[3-(trifluoromethyl)phenyl]methyl}pyrazol-4-yl)-1,3,7-trihydropurin-7-yl]methyl-2,2-dimethylpropanoate] | < 5 ng/mL | Not detectable |  |  |  |
| CCCn1c(=O)c2c(nc(-c3cnn(Cc4cccc(C(F)(F)F)c4)c3)n2COC(=O)NCCN(C)C)n(CC)c1=O [Compound 10] | < 5 ng/mL | Not detectable |  |  | detected in the plasma unmetabolized |

The next lines start with results.

| Cmax [1] | Prodrug Mean Dose Adjusted AUC [1] | plasma levels of parent compound 1 following oral dosing, compared with oral dosing of the parent itself (rats, oral, result in words) | Prodrug Mean Cmax [1] | Structure (SMILES) | prodrug seen in plasma unmetabolized (rats, oral, result in words) |
| --- | --- | --- | --- | --- | --- |
|  | Not detectable | approximately the same | <5 ng/mL | CCCn1c(=O)c2c(nc(-c3cnn(Cc4cccc(C(F)(F)F)c4)c3)n2COC(=O)N(C)CCN(C)C)n(CC)c1=O [Compound 5] |  |
| < 5 ng/mL | Not detectable |  |  | CCCn1c(=O)c2c(nc(-c3cnn(Cc4cccc(C(F)(F)F)c4)c3)n2COP(=O)(O)O)n(CC)c1=O [Compound 6, [3-ethyl-2,6-dioxo-1-propyl-8-(1-{[3-(trifluoromethyl)phenyl]methyl}-pyrazol-4-yl)(1,3,7-trihydropurin-7-yl)]methyl dihydrogen phosphate] | detected in the plasma unmetabolized |
